Experimental data: patent publication US20090105301A1, “9A-SUBSTITUTED AZALIDES FOR THE TREATMENT OF MALARIA” (priority 2006, published 2009)
Converted amounts (≈) assume the structure as drawn. Structures can show the parent of a compound that is named as a salt.

What was measured:
Format in all cases: cell-based, Plasmodium falciparum
[1] = tested on: P. falciparum W2 (CDC/Indochina III, W-2); test: In vitro screening protocol I, [3H]-hypoxanthine incorporation, W2; conditions: In vitro screening protocol I, P. falciparum W2; for IC50: Plasmodium falciparum, read-out: IC50 W2
From the text: (§1) Agents Chemother. 27 (4) (1985) 525-530). The system was limited to the assessment of the intrinsic activity against the erythrocytic asexual life cycle (blood schizontocides). Two Plasmodium falciparum clones from CDC/Indochina III (W-2) and CDC/Sierra Leone I (D-6) (Oduola A M, Weatherly N F, Bowdre J H, Desjardins R E. Plasmodium falciparum: cloning by single-erythrocyte micromanipulation and heterogeneity in vitro. Exp Parasitol. 66 (1) (1988) 86-95) were used for all assays. TM91C235, a multiple drug resistant isolate from Thailand (Antimicrob. Agents Chemother. 46 (8) (2002) 2627 and Antimicrob. Agents Chemother. 43 (3) (1999) 598-602), was used for the prescreening assay. W-2 is resistant to chloroquine, quinine, and pyrimethamine and susceptible to mefloquine. D-6 tends to be more resistant to mefloquine and susceptible to chloroquine, quinine, and pyrimethamine. All documents cited in this paragraph are incorporated by reference in their entirety.
(§2) All parasites were maintained in continuous long term cultures in RPMI-1640 medium supplemented with 6% washed human A positive (A+)(erythrocytes, 25 mM Hepes, […], and 10% heat inactivated A+ human plasma or ALBUMAX® (lipid-rich bovine serum albumin; Invitrogen, Carlsbad, Calif.). All cultures and assays were conducted at 37° C. under an atmosphere of 5% CO2 and 5% O2, with a balance of N2.
(§3) The prescreening assay uses TM91C235 diluted at a 0.4% parasitemia in a 1% hematocrit in folic acid free and p-aminobenzoic acid free media RPMI-1640 and ALBUMAX®. […] The compound is further diluted in folate free (FF) culture medium with ALBUMAX® for the first initial starting concentration. The rest of the stock drug solution was kept at −70° C. The isolate was preexposed, in duplicate, at three concentrations (25,000 ng/ml, 2,500 ng/ml, and […]) of the test compound for 48 hr in a 96-well microtiter plate (MTP) using the BIOMEK® 2000 automated laboratory workstation. Each MTP contains chloroquine as control to assess the relative activity of the compound and to monitor the response of TM91C235.
(§4) After the preincubation, [^3H]-hypoxanthine was added to each well of the MTP. (The assay relies on the incorporation of radiolabeled hypoxanthine by the parasites, which indicates reproduction, and inhibition of isotope incorporation was attributed to activity of known or candidate antimalarial drugs). After 72 hours of total incubation time, the MTP were frozen to lyse the erythrocytes and parasites. The parasite DNA was recovered by harvesting the lysate onto glass-fiber filter plates using a Packard FilterMate™ Cell Harvester. The radioactivity was counted on a Packard TopCount™ microplate scintillation counter.
(§5) The serial dilution assay was conducted using the same assay conditions and stock solution of the compound used for the preliminary screen, described above. Both the D-6 and the W-2 clones were used. The compounds were diluted two-fold over 11 different concentration ranges with a starting concentration that was based on the preliminary screen. For each drug, the concentration response profile was determined and 50% inhibitory concentrations (IC50) were determined by using a non-linear, logistic dose response analysis program. […] For each assay, the IC50 for each clone was determined against the known antimalarials chloroquine and mefloquine. These control values established the compound's relative parasite susceptibility profile compared to known antimalarials. […]

P. falciparum TM91C235 = test: In vitro screening protocol I, [3H]-hypoxanthine incorporation, TM91C235; conditions: In vitro screening protocol I, P. falciparum TM91C235; for IC50: Plasmodium falciparum, read-out: IC50 TM91C235
From the text: as §1, §2, §3, §4, §5

[2] = tested on: P. falciparum D6 (CDC/Sierra Leone I, D-6); test: In vitro screening protocol I, [3H]-hypoxanthine incorporation, D6; conditions: In vitro screening protocol I, P. falciparum D6; for IC50: Plasmodium falciparum, read-out: IC50 D6
From the text: as §1, §2, §3, §4, §5

| IC50 [1] [µg/mL] | IC50 (P. falciparum TM91C235) [µg/mL] | IC50 [2] [µg/mL] | SMILES | IC50 W2 [1] | IC50 TM91C235 (P. falciparum TM91C235) | IC50 D6 [2] |
| --- | --- | --- | --- | --- | --- | --- |
| 0.1 to 0.2 | < 0.1 | 0.2 to 1 | CC[C@H]1OC(=O)[C@H](C)[C@@H](O[C@H]2C[C@@](C)(OC)[C@@H](O)[C@H](C)O2)[C@H](C)[C@@H](O[C@@H]2O[C@H](C)C[C@H](N(C)C)[C@H]2O)[C@](C)(O)C[C@@H](C)CN(CCCNC(=O)CCCCc2ccccc2)[C@H](C)[C@@H](O)[C@]1(C)O [Example 31, 9a-{3-[(5-Phenylpentanoyl)amino]propyl}-9a-aza-9-deoxo-9-dihydro-9a-homoerythromycin A Formiate Salt] |  |  |  |
| < 0.1 | < 0.1 | < 0.1 | CC[C@H]1OC(=O)[C@H](C)[C@@H](O)[C@H](C)[C@@H](O[C@@H]2O[C@H](C)C[C@H](N(C)C)[C@H]2O)[C@](C)(O)C[C@@H](C)CN(CCCNc2ccnc3cc(Cl)ccc23)[C@H](C)[C@@H](O)[C@]1(C)O [Example 23] |  |  |  |
| < 0.1 | < 0.1 | < 0.1 | CC[C@H]1OC(=O)[C@H](C)[C@@H](O[C@H]2C[C@@](C)(OC)[C@@H](O)[C@H](C)O2)[C@H](C)[C@@H](O[C@@H]2O[C@H](C)C[C@H](N(C)C)[C@H]2O)[C@](C)(O)C[C@@H](C)CN(CCCNc2ccnc3cc(Cl)ccc23)[C@H](C)[C@@H](O)[C@]1(C)O [Example 21A, 9a-{3-[(7-Chloro-quinolin-4-yl)amino]propyl}-9-deoxo-9-dihydro-9a-aza-9a-homoerythromycin A] |  |  |  |
| 0.2 to 1 (≈ 0.324 to 1.62 µM) | 1 to 2.5 (≈ 1.62 to 4.05 µM) | 3.5 to 5 (≈ 5.67 to 8.09 µM) | CC[C@H]1OC(=O)[C@H](C)[C@@H](O)[C@H](C)[C@@H](O)[C@](C)(O)C[C@@H](C)CN(CCCNCc2ccc3ccccc3n2)[C@H](C)[C@@H](O)[C@]1(C)O [Example 3, 9a-{3-[(Quinolin-2-yl-methyl)amino]propyl}-3-O-decladinosyl-5-O-dedesosaminyl-9-deoxo-9-dihydro-9a-aza-9a-homoerythromycin A] |  |  |  |
| 0.1 to 0.2 (≈ 0.129 to 0.258 µM) | 0.1 to 0.2 (≈ 0.129 to 0.258 µM) | 0.2 to 1 (≈ 0.258 to 1.29 µM) | CC[C@H]1OC(=O)[C@H](C)[C@@H](O)[C@H](C)[C@@H](O[C@@H]2O[C@H](C)C[C@H](N(C)C)[C@H]2O)[C@](C)(O)C[C@@H](C)CN(CCCNCc2cnc3ccccc3c2)[C@H](C)[C@@H](O)[C@]1(C)O [Example 5, 9a-{3-[(Quinolin-3-yl-methyl)amino]propyl}-3-O-decladinosyl-9-deoxo-9-dihydro-9a-aza-9a-homoerythromycin A] |  |  |  |
| 0.2 to 1 (≈ 0.226 to 1.13 µM) | 1 to 2.5 (≈ 1.13 to 2.83 µM) | 1 to 2.5 (≈ 1.13 to 2.83 µM) | CC[C@H]1OC(=O)[C@H](C)[C@@H](O[C@H]2C[C@@](C)(OC)[C@@H](O)[C@H](C)O2)[C@H](C)[C@@H](O[C@@H]2O[C@H](C)C[C@H](N(C)C)[C@H]2O)[C@](C)(O)C[C@@H](C)CN(CCCNCc2ccccn2)[C@H](C)[C@@H](O)[C@]1(C)O [Example 18, 9a-{3-[(Pyridin-2-yl-methyl)amino]propyl}-9-deoxo-9-dihydro-9a-aza-9a-homoerythromycin A] |  |  |  |
| 1 to 2.5 (≈ 1.1 to 2.76 µM) | 0.2 to 1 (≈ 0.221 to 1.1 µM) | 1 to 2.5 (≈ 1.1 to 2.76 µM) | CC[C@H]1OC(=O)[C@H](C)[C@@H](O[C@H]2C[C@@](C)(OC)[C@@H](O)[C@H](C)O2)[C@H](C)[C@@H](O[C@@H]2O[C@H](C)C[C@H](NC)[C@H]2O)[C@](C)(O)C[C@@H](C)CN(CCCNc2ccnc3ccccc23)[C@H](C)[C@@H](O)[C@]1(C)O [Example 25, 9a-[3-(Quinolin-4-yl-amino)propyl]-3′-N-demethyl-9-deoxo-9-dihydro-9a-aza-9a-homoerythromycin A] |  |  |  |
| 0.2 to 1 | < 0.1 | 0.2 to 1 | CC[C@H]1OC(=O)[C@H](C)[C@@H](O[C@H]2C[C@@](C)(OC)[C@@H](O)[C@H](C)O2)[C@H](C)[C@@H](O[C@@H]2O[C@H](C)C[C@H](N(C)C)[C@H]2O)[C@](C)(O)C[C@@H](C)CN(CCCNC(=O)CCCc2ccccc2)[C@H](C)[C@@H](O)[C@]1(C)O [Example 28, 9a-{3-[(4-Phenylbutanoyl)amino]propyl}-9a-aza-9-deoxo-9-dihydro-9a-homoerythromycin A Formiate Salt] |  |  |  |
|  |  |  | CC[C@H]1OC(=O)[C@H](C)[C@@H](O[C@H]2C[C@@](C)(OC)[C@@H](O)[C@H](C)O2)[C@H](C)[C@@H](O[C@@H]2O[C@H](C)C[C@H](N(C)C)[C@H]2O)[C@](C)(O)C[C@@H](C)CN(CCCNCc2ccnc3ccccc23)[C@H](C)[C@@H](O)[C@]1(C)O [Example 14, 9a-{3-[(Quinolin-4-yl-methyl)amino]propyl}-9-deoxo-9-dihydro-9a-aza-9a-homoerythromycin A] | B (100 < X ≦ 200) | B (100 < X ≦ 200) | B (100 < X ≦ 200) |
| 0.1 to 0.2 (≈ 0.129 to 0.258 µM) | 0.1 to 0.2 (≈ 0.129 to 0.258 µM) | 0.2 to 1 (≈ 0.258 to 1.29 µM) | CC[C@H]1OC(=O)[C@H](C)[C@@H](O)[C@H](C)[C@@H](O[C@@H]2O[C@H](C)C[C@H](N(C)C)[C@H]2O)[C@](C)(O)C[C@@H](C)CN(CCCNCc2ccc3ccccc3n2)[C@H](C)[C@@H](O)[C@]1(C)O [Example 2, 9a-{3-[(Quinolin-2-yl-methyl)amino]propyl}-3-O-decladinosyl-9-deoxo-9-dihydro-9a-aza-9a-homoerythromycin A] |  |  |  |
| < 0.1 | < 0.1 | 0.1 to 0.2 (≈ 0.107 to 0.214 µM) | CC[C@H]1OC(=O)[C@H](C)[C@@H](O[C@H]2C[C@@](C)(OC)[C@@H](O)[C@H](C)O2)[C@H](C)[C@@H](O[C@@H]2O[C@H](C)C[C@H](N(C)C)[C@H]2O)[C@](C)(O)C[C@@H](C)CN(CCCNCc2ccc3ccccc3n2)[C@H](C)[C@@H](O)[C@]1(C)O [Example 1, 9a-{3-[(Quinolin-2-yl-methyl)amino]propyl}-9-deoxo-9-dihydro-9a-aza-9a-homoerythromycin A] |  |  |  |
| < 0.1 | < 0.1 | 0.1 to 0.2 (≈ 0.107 to 0.213 µM) | CC[C@H]1OC(=O)[C@H](C)[C@@H](O[C@H]2C[C@@](C)(OC)[C@@H](O)[C@H](C)O2)[C@H](C)[C@@H](O[C@@H]2O[C@H](C)C[C@H](N(C)C)[C@H]2O)[C@](C)(O)C[C@@H](C)CN(CCC(=O)NCCCCc2ccccc2)[C@H](C)[C@@H](O)[C@]1(C)O [Example 41] |  |  |  |
| 0.1 to 0.2 (≈ 0.131 to 0.263 µM) | 0.2 to 1 (≈ 0.263 to 1.31 µM) | 0.1 to 0.2 (≈ 0.131 to 0.263 µM) | CC[C@H]1OC(=O)[C@H](C)[C@@H](O)[C@H](C)[C@@H](O[C@@H]2O[C@H](C)C[C@H](N(C)C)[C@H]2O)[C@](C)(O)C[C@@H](C)CN(CCCNc2ccnc3ccccc23)[C@H](C)[C@@H](O)[C@]1(C)O [Example 24, 9a-[3-(Quinolin-4-yl-amino)propyl]-3-O-decladinosyl-9-deoxo-9-dihydro-9a-aza-9a-homoerythromycin A] |  |  |  |
